Data set [1] in a line: Rat brain distribution after oral administration of APRE (UPLC-MS/MS). As to conditions: for log BBexpt.: log (AUC0→∞/brain/AUC0→∞/plasma), oral APRE; for log BBexpt. / Tmax / half-life / Kp: rat; for AUC0→t / AUC0→∞ / CLz/F / Vz/F: rat brain, oral APRE 4 g/kg, mean ± SD, n = 6; for Tmax / half-life: brain; for Tmax / half-life / Kp: po, 4 g/kg; for Kp: brain/plasma.
Protocol: (§1) Each weighed brain sample was homogenized with a 2-fold volume of normal saline solution. IS solution (10 μL, 200 ng/mL) was added to 300 μL of the homogenate. The mixture was then extracted with a 3-fold volume of ethyl acetate. The mixture was vortexed for 1 min and centrifuged at 16,000× g for 10 min. The supernatant was transferred out and dried under a gentle constant flow of nitrogen. The residue was then dissolved with 100 μL of MeOH and ultrasonically (power 250 W, frequency 40 KHz) extracted for 10 min. After centrifugation at 16,000× g for 10 min, the supernatant was drawn out into a clean vial, and 5 μL of each were injected into the UPLC–MS/MS system for analysis.
(§2) The UPLC-MS/MS system consisted of a Shimadzu Nexera UPLC instrument connected to a Shimadzu LCMS-8050 mass spectrometer via the electrospray ionization interface (Shimadzu Corp., Kyoto, Japan). Samples were separated on an ACQUITY UPLC BEH RP18 column (2.1 × 100 mm, 1.7 µm, Waters, Milford, MA, USA) equipped with a BEH RP18 guard column (2.1 × 5 mm, 1.7 µm, Waters, Milford, MA, USA). The column temperature was 30 °C, and the flow rate was 0.4 mL/min. The sample injection volume was 5 µL. The mobile phases consisted of 0.1% (v/v) formic acid in water (A) and ACN (B). The LC gradient elution program and mass working parameters were the same as our previous report [6]. […] The precursor ion, product ion, Q1, Q3, CE and DT were optimized.
(§3) The time schedule included 9 time-points, and six rats were sampled at each time-point. The rats were fasted overnight with free access to water before the experiment. APRE was suspended with the normal saline and orally administered to the rats at a single dose of 4 g/kg. The animals had free access to water during the experiment.
(§4) Cardiac perfusion was carried out quickly with physiological saline after CSF collection at each time-point. The rat brains were separated, weighed and then stored at −80 °C until treatment.
(§5) Results were expressed as the mean ± standard deviation (SD). The UPLC-MS/MS data were processed with Labsolutions 5.65 software (Shimadzu Corp., Kyoto, Japan). The pharmacokinetic parameters were calculated with the Drug and Statistics 2.0 software (Mathematical Pharmacology Professional Committee of China, Shanghai, China).
A short description of data set [2]: Stability of QC samples in rat brain homogenate (freeze-thaw, room temperature). As to conditions: percentage remaining, n = 5; for Stability room temperature: room temperature 24 h; for Stability Freeze-thaw: three freeze-thaw cycles. Format: physicochemical.
Data set [3] can be described thus: Rat CSF distribution after oral administration of APRE (UPLC-MS/MS). The conditions noted are these: for AUC(0-inf) / AUC(0-t) / Cmax / Tmax / half-life / total amount percentage of CSF/plasma: rat; for AUC(0-inf) / AUC(0-t) / Cmax / Tmax / half-life: CSF, po, 4 g/kg; for total amount percentage of CSF/plasma: (0.48 × AUC0→∞/CSF)/(16 × AUC0→∞/plasma), oral APRE.
Protocol: (§6) Aliquots of 50 μL CSF samples with IS (10 μL, 200 ng/mL) were extracted with 600 μL ethyl acetate.
(§7) The UPLC-MS/MS system consisted of a Shimadzu Nexera UPLC instrument connected to a Shimadzu LCMS-8050 mass spectrometer via the electrospray ionization interface (Shimadzu Corp., Kyoto, Japan). Samples were separated on an ACQUITY UPLC BEH RP18 column (2.1 × 100 mm, 1.7 µm, Waters, Milford, MA, USA) equipped with a BEH RP18 guard column (2.1 × 5 mm, 1.7 µm, Waters, Milford, MA, USA). The column temperature was 30 °C, and the flow rate was 0.4 mL/min. The sample injection volume was 5 µL. The mobile phases consisted of 0.1% (v/v) formic acid in water (A) and ACN (B). […] The precursor ion, product ion, Q1, Q3, CE and DT were optimized.
as §3
(§8) Rats were anesthetized by an intraperitoneal dose of chloral hydrate (350 mg/kg) at 0.25, 0.5, 1, 1.5, 2, 4, 6, 8, 12 h after oral administration of APRE. A dorsal midline cutaneous incision was made, and the muscle at the craniocervical junction was bluntly dissected to expose the atlanto-occipital membrane. The cisterna magna was punctured with a thin syringe needle, and a microinjector connected with the needle was used to collect the interior CSF carefully [27]. Clear CSF was transferred to a clean microtube and frozen at −80 °C until further use. Blood contaminated samples were excluded.
as §5
For the next data set, the system named is in vitro BBB model. Also noted: method as in PMID 26121397. The conditions noted are these: based on bidirectional Papp values; cited from earlier work.
On the set-up of data set [4]: method as in PMID 28654868. As to conditions: rat plasma, oral APRE; cited from earlier work.
Data set [5] in a line: Stability of QC samples in aCSF (freeze-thaw, room temperature). Format: physicochemical. As to conditions: percentage remaining, n = 5; for Stability room temperature: room temperature 24 h; for Stability Freeze-thaw: three freeze-thaw cycles.
For data set [6] the following is noted: rat, in vivo, po.
Protocol: as §6, §7, §3, §8, §5
The conditions of data set [7]: rat, in vivo, po. This is another data set of the same source.
Protocol: as §1, §2, §3, §4, §5

The Tmax is the time from dosing to the highest level. As a reminder, the half-life is how long it takes for the measured level to halve. The low end stands for fast loss, the high end for slow loss. The term Kp denotes the ratio of the level in a tissue or fluid to that in plasma or blood. The term AUC(0-inf) denotes the area under the concentration-time curve extrapolated to infinity. The low end stands for less exposure, the high end for more exposure. As usually defined, the AUC(0-t) is the area under the concentration-time curve up to a stated or last time point. Broadly, the Cmax is the maximum level reached in the sampled fluid or tissue.

Like-named read-outs stand apart in the source and are kept apart here.

On to `CC(C)=CCOc1c2ccoc2cc2oc(=O)ccc12` [Compound 4, isoimperatorin], for which, in data set [1], the “log BBexpt.” value is on record as −0.16, the AUC0→t was determined as 15.51 ± 4.82 µg·h/kg, the “AUC0→∞” value was determined as 21.56 ± 14.56 µg·h/kg and the CLz/F was determined as 52.86 ± 24.79 g/h/kg. Moreover, in data set [1], the Vz/F is listed as 245.44 ± 108.54 g/kg, the Tmax came to 0.33 ± 0.13 h and the half-life is 212 ± 81 min. For the same compound, in data set [2] (rat brain QC 5 ng/mL), the Stability room temperature is listed as 91.59±10.74% and the “Stability Freeze-thaw” value is given as 104.96±13.66%. In addition, in data set [2] (rat brain QC 80 ng/mL), the Stability room temperature was 88.65±10.02% and the “Stability Freeze-thaw” value is 93.10±4.03%. For the same compound, in data set [2] (rat brain QC 160 ng/mL), the Stability room temperature stood at 86.85±3.37% and the “Stability Freeze-thaw” value was 89.68±3.96%. Moreover, in data set [3] (rat CSF after oral APRE), the “MRM response in CSF” value is recorded as “under LLOQ”. The “absorption classification across the in vitro BBB model” value in the data set on in vitro BBB model is listed as “moderately-absorbed”.

With `CC(C)(O)[C@@H]1Cc2c(ccc3ccc(=O)oc23)O1` [Compound 5, columbianetin], in data set [1], the AUC0→t is recorded as 13,438.17 ± 2016.06 µg/kg·h, the “AUC0→∞” value is given as 16,664.04 ± 3662.67 µg/kg·h, the CLz/F is given as 0.11 ± 0.02 g/h/kg and the Vz/F was 0.57 ± 0.39 g/kg. Further, in data set [1], the Tmax was found to be 4 ± 1.79 h, the half-life is 235 ± 200 min and the Kp is 0.08. The “plasma Cmax” value in data set [4] is listed as 2240.32 ± 1031.92 µg/L. For the same compound, in data set [2] (rat brain QC 5 ng/mL), the Stability room temperature is given as 97.88±10.06% and the “Stability Freeze-thaw” value amounted to 105.83±7.01%. Moreover, in data set [2] (rat brain QC 1200 ng/mL), the Stability room temperature is recorded as 89.46±3.10% and the “Stability Freeze-thaw” value came to 91.69±3.42%. In data set [2] (rat brain QC 2400 ng/mL), the Stability room temperature is listed as 91.21±6.60% and the “Stability Freeze-thaw” value turned out to be 87.85±9.09%. Also, in data set [3], the total exposure AUC(0-inf) amounted to 4140 ± 602 ng·h/mL, the AUC(0-t) came out at 3370 ± 604 ng·h/mL, the maximum concentration (Cmax) was 485 ± 91.4 ng/mL and the Tmax came out at 5 ± 1.1 h. The same compound showed a half-life in data set [3] of 244 ± 145 min. Besides, in data set [5] (aCSF QC 5 ng/mL), the Stability room temperature was determined as 97.23±8.25% and the “Stability Freeze-thaw” value is 96.35±9.69%. Further, in data set [5] (aCSF QC 320 ng/mL), the Stability room temperature is reported as 93.93±2.94% and the “Stability Freeze-thaw” value came out at 93.46±8.56%. Besides, in data set [5] (aCSF QC 640 ng/mL), the Stability room temperature came to 99.45±9.62% and the “Stability Freeze-thaw” value worked out at 93.87±4.82%.

With `CC=C(C)C(=O)OC(C(O)c1cc2ccc(=O)oc2cc1OC)C(C)(C)O` (stereo not drawn) [Compound 9, angelol B], in data set [1], the “log BBexpt.” value is recorded as −0.44, the AUC0→t came out at 21.06 ± 8.70 µg·h/kg, the “AUC0→∞” value was determined as 25.06 ± 8.03 µg·h/kg and the CLz/F is 301.26 ± 92.33 g/h/kg. For the same compound, in data set [1], the Vz/F turned out to be 1299.16 ± 842.00 g/kg, the time to peak (Tmax) came out at 0.29 ± 0.1 h and the half-life is 166 ± 69 min. Moreover, in data set [4], the CL in plasma is reported as 110.26 ± 39.27 g/h/kg and the t1/2 in plasma is given as 6.63 ± 4.37 h. Further, in data set [2] (rat brain QC 5 ng/mL), the Stability room temperature stood at 96.24±7.79% and the “Stability Freeze-thaw” value is 101.51±11.81%. Also, in data set [2] (rat brain QC 80 ng/mL), the Stability room temperature amounted to 97.77±8.23% and the “Stability Freeze-thaw” value is 95.20±9.40%. Also, in data set [2] (rat brain QC 160 ng/mL), the Stability room temperature is reported as 96.20±7.07% and the “Stability Freeze-thaw” value is 102.98±8.06%. Moreover, in data set [3], the “total amount percentage of CSF/plasma” value is on record as “greater than 1%”, the AUC(0-inf) worked out at 28.2 ± 3.94 ng·h/mL, the AUC(0-t) was determined as 20 ± 3.35 ng·h/mL and the Cmax worked out at 7.65 ± 4.14 ng/mL. In data set [3], the Tmax is 0.38 ± 0.31 h and the half-life is 421 ± 151 min. Also, in data set [5] (aCSF QC 5 ng/mL), the Stability room temperature was 97.45±4.87% and the “Stability Freeze-thaw” value was 95.14±6.53%. In data set [5] (aCSF QC 40 ng/mL), the Stability room temperature turned out to be 95.67±3.47% and the “Stability Freeze-thaw” value amounted to 95.36±7.29%. Also, in data set [5] (aCSF QC 80 ng/mL), the Stability room temperature was determined as 96.66±9.22% and the “Stability Freeze-thaw” value is 96.89±4.68%.

As for `CC(C)(O)[C@H]1Cc2cc3ccc(=O)oc3cc2O1` [Compound 12, nodakenetin], in data set [1], the AUC0→t was 933.83 ± 66.51 µg·h/kg, the “AUC0→∞” value turned out to be 1560.07 ± 730.91 µg·h/kg, the CLz/F is given as 0.779 ± 0.26 g/h/kg and the Vz/F stood at 6.30 ± 2.22 g/kg. Besides, in data set [1], the Tmax was determined as 5.33 ± 1.03 h, the half-life is 376 ± 191 min and the Kp was found to be 0.01. In data set [2] (rat brain QC 5 ng/mL), the Stability room temperature stood at 94.83±5.41% and the “Stability Freeze-thaw” value came to 98.18±2.46%. Moreover, in data set [2] (rat brain QC 200 ng/mL), the Stability room temperature worked out at 97.69±5.38% and the “Stability Freeze-thaw” value came out at 101.08±9.25%. In data set [2] (rat brain QC 400 ng/mL), this compound registered a Stability room temperature of 95.56±2.64%. Further, in data set [3], the “total amount percentage of CSF/plasma” value was “greater than 1%”, the AUC(0-inf) was 625 ± 249 ng·h/mL, the AUC(0-t) was 331 ± 43.2 ng·h/mL and the concentration peaked (Cmax) at 43.5 ± 5.98 ng/mL. In data set [3], the Tmax was determined as 6.33 ± 0.82 h and the half-life was 401 ± 135 min. In addition, in data set [5] (aCSF QC 5 ng/mL), the Stability room temperature is recorded as 102.33±8.37% and the “Stability Freeze-thaw” value amounted to 101.36±5.89%. Besides, in data set [5] (aCSF QC 120 ng/mL), the Stability room temperature amounted to 101.14±5.08% and the “Stability Freeze-thaw” value was 92.78±5.37%. In data set [5] (aCSF QC 240 ng/mL), the Stability room temperature amounted to 99.91±7.69% and the “Stability Freeze-thaw” value is reported as 95.63±4.23%.

Consider `CC(C)=CCOc1c2occc2cc2ccc(=O)oc12` [imperatorin], for which, in data set [6], the “MRM response in CSF” value was “under LLOQ”. Further, the “MRM response in brain” value in data set [7] is listed as “under LLOQ”.
